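Results reflect a 48-hour exposure of cells in 96-well plates to compound at five concentrations. Here, GI50 denotes the concentration required for 50% inhibition of growth.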 Activity calls are given as the source filed them. No stated cut-off is given here; in the data, active = GI50 up to about 1.1 µM and inactive = higher.
Tests used:
Assay in all cases: NCI-60 cell line screen, 48 h
786-0 = test system: 786-0
A498 = test system: A498
A549 = test system: A549
ACHN = test system: ACHN
CAKI-1 = test system: CAKI-1
CCRF-CEM = test system: CCRF-CEM
COLO 205 = test system: COLO 205
DLD-1 = test system: DLD-1
DMS-114 = test system: DMS-114
DMS-273 = test system: DMS-273
EKVX = test system: EKVX
HCC 2998 = test system: HCC 2998
HCT-116 = test system: HCT-116
HCT-15 = test system: HCT-15
HL-60 = test system: HL-60
HOP-18 = test system: HOP-18
HOP-62 = test system: HOP-62
HOP-92 = test system: HOP-92
HT-29 = test system: HT-29
IGROV-1 = test system: IGROV-1
K562 = test system: K562
KM-20L2 = test system: KM-20L2
KM12 = test system: KM12
LOX IMVI = test system: LOX IMVI
LXFL 529 = test system: LXFL 529
M14 = test system: M14
M19-MEL = test system: M19-MEL
MOLT-4 = test system: MOLT-4
Malme-3M = test system: Malme-3M
NCI-H226 = test system: NCI-H226
NCI-H23 = test system: NCI-H23
NCI-H460 = test system: NCI-H460
NCI-H522 = test system: NCI-H522
OVCAR-3 = test system: OVCAR-3
OVCAR-4 = test system: OVCAR-4
OVCAR-5 = test system: OVCAR-5
OVCAR-8 = test system: OVCAR-8
RPMI-8226 = test system: RPMI-8226
RXF 393 = test system: RXF 393
SF-268 = test system: SF-268
SF-295 = test system: SF-295
SF-539 = test system: SF-539
SK-MEL-28 = test system: SK-MEL-28
SK-MEL-2 = test system: SK-MEL-2
SK-MEL-5 = test system: SK-MEL-5
SK-OV-3 = test system: SK-OV-3
SN12C = test system: SN12C
SNB-19 = test system: SNB-19
SNB-75 = test system: SNB-75
SNB-78 = test system: SNB-78
SR = test system: SR
SW-620 = test system: SW-620
TK-10 = test system: TK-10
U-251 = test system: U-251
UACC-257 = test system: UACC-257
UACC-62 = test system: UACC-62
UO-31 = test system: UO-31
XF498 = test system: XF498
RXF 631 = test system: RXF 631

In the case of COc1cc(/C=C2\CCC(C)(CN(C)C)C2=O)cc(OC)c1OC (centres undefined), the GI50 (786-0) is reported as > 100 µM (inactive), the GI50 (A498) is reported as > 100 µM (inactive) and the GI50 (A549) is reported as > 100 µM (inactive). The GI50 (ACHN) was > 100 µM (inactive), the GI50 (CAKI-1) was > 100 µM (inactive) and the GI50 (CCRF-CEM) was 52.4 µM (inactive). For the same compound, the GI50 (COLO 205) was > 100 µM (inactive), the GI50 (DLD-1) was > 89.1 µM (inactive) and the GI50 (DMS-114) was 99.5 µM (inactive). The GI50 (DMS-273) was > 100 µM (inactive), the GI50 (EKVX) was > 58.3 µM (inactive) and the GI50 (HCC 2998) was > 100 µM (inactive). The GI50 (HCT-116) was > 79.3 µM (inactive), the GI50 (HCT-15) was over 100 µM and the GI50 (HL-60) was 1.57 µM (inactive). The GI50 (HOP-18) was > 100 µM (inactive), the GI50 (HOP-62) was > 100 µM (inactive) and the GI50 (HOP-92) was > 100 µM (inactive). For the same compound, the GI50 (HT-29) was > 100 µM (inactive), the GI50 (IGROV-1) was > 100 µM (inactive) and the GI50 (K562) was 63.7 µM (inactive). The GI50 (KM-20L2) was > 64.9 µM (inactive), the GI50 (KM12) was > 100 µM (inactive) and the GI50 (LOX IMVI) was > 100 µM (inactive). The GI50 (LXFL 529) was > 100 µM (inactive), the GI50 (M14) was > 100 µM (inactive) and the GI50 (M19-MEL) was > 100 µM (inactive). The GI50 (MOLT-4) was > 83.6 µM (inactive), the GI50 (Malme-3M) was > 100 µM (inactive) and the GI50 (NCI-H226) was > 100 µM (inactive). The GI50 (NCI-H23) was > 100 µM (inactive), the GI50 (NCI-H460) was > 100 µM (inactive) and the GI50 (NCI-H522) was 50.7 µM (inactive). For the same compound, the GI50 (OVCAR-3) was > 100 µM (inactive), the GI50 (OVCAR-4) was > 100 µM (inactive) and the GI50 (OVCAR-5) was > 100 µM (inactive). The GI50 (OVCAR-8) was > 100 µM (inactive), the GI50 (RPMI-8226) was 40.8 µM (inactive) and the GI50 (RXF 393) was > 100 µM (inactive). The GI50 (SF-268) was > 100 µM (inactive), the GI50 (SF-295) was > 100 µM (inactive) and the GI50 (SF-539) was > 100 µM (inactive). For the same compound, the GI50 (SK-MEL-28) was > 100 µM (inactive), the GI50 (SK-MEL-2) was > 100 µM (inactive) and the GI50 (SK-MEL-5) was > 93.3 µM (inactive). For the same compound, the GI50 (SK-OV-3) was > 100 µM (inactive), the GI50 (SN12C) was > 100 µM (inactive) and the GI50 (SNB-19) was > 100 µM (inactive). For the same compound, the GI50 (SNB-75) was > 100 µM (inactive), the GI50 (SNB-78) was > 44.7 µM (inactive) and the GI50 (SR) was 63.4 µM (inactive). For the same compound, the GI50 (SW-620) was > 100 µM (inactive), the GI50 (TK-10) was > 100 µM (inactive) and the GI50 (U-251) was > 100 µM (inactive). The GI50 (UACC-257) was > 100 µM (inactive), the GI50 (UACC-62) was 70.5 µM (inactive) and the GI50 (UO-31) was > 100 µM (inactive). For the same compound, the GI50 (XF498) was > 100 µM (inactive).

In the case of O=C(/C=C/c1ccc(O)cc1)OC[C@@H](O)COC1OC(CO)C(O)C(O)C1O (some centres undefined), the GI50 (A498) is reported as > 100 µM (inactive), the GI50 (A549) is reported as > 100 µM (inactive) and the GI50 (ACHN) is reported as > 100 µM (inactive). The GI50 (CCRF-CEM) was > 100 µM (inactive), the GI50 (DMS-114) was > 100 µM (inactive) and the GI50 (EKVX) was > 100 µM (inactive). The GI50 (HCT-116) was > 100 µM (inactive), the GI50 (HL-60) was > 100 µM (inactive) and the GI50 (HOP-62) was > 100 µM (inactive). For the same compound, the GI50 (HOP-92) was > 100 µM (inactive), the GI50 (HT-29) was > 100 µM (inactive) and the GI50 (IGROV-1) was > 100 µM (inactive). For the same compound, the GI50 (K562) was > 100 µM (inactive), the GI50 (KM12) was > 100 µM (inactive) and the GI50 (M14) was > 100 µM (inactive). For the same compound, the GI50 (M19-MEL) was > 100 µM (inactive), the GI50 (MOLT-4) was > 100 µM (inactive) and the GI50 (NCI-H226) was 94.2 µM (inactive). The GI50 (NCI-H23) was > 100 µM (inactive), the GI50 (NCI-H460) was > 100 µM (inactive) and the GI50 (NCI-H522) was > 100 µM (inactive). The GI50 (OVCAR-5) was > 100 µM (inactive), the GI50 (OVCAR-8) was > 100 µM (inactive) and the GI50 (RXF 393) was > 100 µM (inactive). The GI50 (RXF 631) was > 100 µM (inactive), the GI50 (SF-295) was > 100 µM (inactive) and the GI50 (SK-MEL-28) was > 100 µM (inactive). For the same compound, the GI50 (SK-OV-3) was > 100 µM (inactive), the GI50 (SNB-19) was > 100 µM (inactive) and the GI50 (SNB-78) was > 100 µM (inactive). For the same compound, the GI50 (SR) was > 100 µM (inactive), the GI50 (TK-10) was > 100 µM (inactive) and the GI50 (U-251) was > 100 µM (inactive). The GI50 (UACC-257) was > 100 µM (inactive) and the GI50 (UO-31) was > 100 µM (inactive).

With O=C(/C(=N/Nc1ccccc1)c1ccc([N+](=O)[O-])cc1)c1ccc([N+](=O)[O-])cc1 the GI50 (786-0) was > 100 µM (inactive), the GI50 (A549) was > 100 µM (inactive) and the GI50 (ACHN) was > 100 µM (inactive). The GI50 (CAKI-1) was > 100 µM (inactive), the GI50 (COLO 205) was > 100 µM (inactive) and the GI50 (DLD-1) was > 100 µM (inactive). The GI50 (DMS-114) was > 100 µM (inactive), the GI50 (DMS-273) was > 100 µM (inactive) and the GI50 (EKVX) was > 100 µM (inactive). For the same compound, the GI50 (HCC 2998) was > 100 µM (inactive), the GI50 (HCT-116) was > 100 µM (inactive) and the GI50 (HCT-15) was 39 µM. For the same compound, the GI50 (HOP-18) was > 100 µM (inactive), the GI50 (HOP-92) was 46.2 µM (inactive) and the GI50 (HT-29) was 20.7 µM (inactive). The GI50 (IGROV-1) was > 100 µM (inactive), the GI50 (K562) was 64.4 µM (inactive) and the GI50 (KM-20L2) was > 100 µM (inactive). The GI50 (KM12) was > 100 µM (inactive), the GI50 (LXFL 529) was > 100 µM (inactive) and the GI50 (M14) was > 100 µM (inactive). The GI50 (M19-MEL) was > 100 µM (inactive), the GI50 (MOLT-4) was > 100 µM (inactive) and the GI50 (Malme-3M) was > 100 µM (inactive). The GI50 (NCI-H23) was > 100 µM (inactive), the GI50 (NCI-H460) was > 100 µM (inactive) and the GI50 (NCI-H522) was 21.9 µM (inactive). For the same compound, the GI50 (OVCAR-3) was > 100 µM (inactive), the GI50 (OVCAR-4) was > 100 µM (inactive) and the GI50 (OVCAR-5) was > 100 µM (inactive). The GI50 (OVCAR-8) was > 100 µM (inactive), the GI50 (RPMI-8226) was 93.3 µM (inactive) and the GI50 (RXF 393) was > 100 µM (inactive). The GI50 (SF-295) was 32.1 µM (inactive), the GI50 (SF-539) was > 100 µM (inactive) and the GI50 (SK-MEL-28) was > 100 µM (inactive). The GI50 (SK-MEL-2) was > 100 µM (inactive), the GI50 (SK-MEL-5) was > 100 µM (inactive) and the GI50 (SK-OV-3) was > 100 µM (inactive). For the same compound, the GI50 (SN12C) was > 100 µM (inactive), the GI50 (SNB-19) was > 100 µM (inactive) and the GI50 (SNB-75) was 85.5 µM (inactive). For the same compound, the GI50 (SNB-78) was > 100 µM (inactive), the GI50 (SR) was > 100 µM (inactive) and the GI50 (SW-620) was > 100 µM (inactive). For the same compound, the GI50 (TK-10) was > 100 µM (inactive), the GI50 (U-251) was > 100 µM (inactive) and the GI50 (UACC-257) was > 100 µM (inactive). For the same compound, the GI50 (UACC-62) was > 100 µM (inactive), the GI50 (UO-31) was > 100 µM (inactive) and the GI50 (XF498) was > 100 µM (inactive).

— ChEMBL document CHEMBL1201862, “PubChem BioAssay data set” (2004)
